From patent US20060063785A1, “Substituted pyrazolo[1,5-a] pyrimidines and process for making same” (priority 2004, published 2006) come the findings set out here.

The subject of one data set is LoVo Colon cell line. As to the kind of experiment: Cytotoxicity assay using LoVo colon cell line (SRB, IC50). Type of data set: cell-based. Particulars: read-out: Inhibition of LoVo. As for the experimental part:
Cytotoxicity Assay Using LoVo Colon Cell Line: • 1. LoVo Colon cell lines was cultured in RPMI 1640 medium (Gibco/Invitrogen Life Sciences) supplemented with 10% fetal bovine serum (FBS, Gibco) and 50 μg/ml gentamicin (Gibco). Cells were maintained at 37° C. under 7% CO2. • 2. Cells were seeded in 96-well microtiter plates (Corning/Costar) in a volume of 0.15 ml of growth medium (4000 cells/well). Plates were incubated at 37° C. overnight (18-24 hours). • 3. Serial dilutions of the test agent were added to each well. Dilutions were prepared in growth medium. One of two dose ranges was used: 5 pM to 20 μM or […] to 10 μg/ml. Cells were incubated with the test compounds for 4 days at 37° C. • 4. Surviving cells were processed using the SRB asay, as described above.
5. The drug concentration that inhibits cell proliferation by 50% relative to untreated controls (IC50) was determined from cytotoxicity curves using the LSW Toolbox graphing application.

Data set [1] has as its system 80S14 (p21-deficient) cells. In words: Determination of selectivity of compounds for p21-/- cells: IC50 in 80S14 cells (SRB). Type of data set: cell-based, human. On the procedure:
• 1. 80S14 (p21-deficient) cells were cultured in RPMI 1640 medium (Gibco/Invitrogen Life technologies) supplemented with 10% fetal bovine serum (FBS, Gibco) and 10 μg/ml gentamycin (Gibco). Cells were maintained at 37° C. under 7% CO2. • 2. Cells were plated at 6×10^4/ml (0.2 ml/well; 12,000 cells/well) in 96-well microtiter plates (Falcon or Corning/Costar) and incubated at 37° C. overnight (18-24 hours). • 3. 2-5 μl of the test agent-[200 μg/ml stock in 20% DMSO/20 mM HEPES, pH 7.5 (Gibco)] was added to each well to achieve a final concentration of 2-5 μg/ml. Cells were incubated with the test compounds for 5 days at 37° C. • 4. Surviving cells were fixed with 50 μl 50% trichloroacetic acid (Sigma; 10% final concentration) for 1 hour at 4° C. • 5. Plates were rinsed twice with water (0.3 ml per wash using MRD8 robot), and allowed to dry. • 6. Sulforhodamine B (SRB) (Sigma; 0.4% in 1% acetic acid, 50 μl per well; MRD8 robot) was added and plates kept at room temperature for 10 minutes. • 7. Excess dye was removed by washing with 1% acetic acid (3 times, 0.3 ml per wash; MRD8 robot) and allowed to dry. • 8. The dye was solubilized in Tris base (Sigma; 10 mM, 150 μl per well). Plates were kept at room temperature for 30 minutes to allow the dye to diffuse. • 9. Absorbance was measured at 540 nm. • 10. The percentage of cells surviving drug treatment relative to control wells (no drug) was determined. • 11. The difference in % cell survival between the two cell lines was calculated. • 12. Compounds producing a difference score of >50 were considered to be selective for the p21-deficient cells and were evaluated further. Determination of Selectivity of Compounds for p21−/− Cells: • 1. 80S14 cells were cultured as described above. • 2. Cells were seeded in 96-well microtiter plates at 12,000 cells/well (either 0.15 ml/well of 8×10^4 cells/ml suspension, or 0.2 ml/well of 6×10^4 cells/ml suspension). Plates were incubated at 37° C. overnight (18-24 hours). • 3. Serial dilutions of the test agent were added to each well. Dilutions were prepared either in 40% DMSO/20% methanol/20 mM HEPES, pH 7.5 (Gibco) or directly in growth medium. One of two dose ranges were used: 5 pM to 50 μM or 170 pg/ml to 10 μg/ml. Cells were incubated with the test compounds for 5 days at 37° C. • 4. Surviving cells were fixed with 50 μl 50% trichloroacetic acid (Sigma; 10% final concentration) for 1 hour at 4° C. • 5. Plates were rinsed extensively in water, and allowed to dry. • 6. Sulforhodamine B (Sigma; 0.4% in 1% acetic acid, 70 μl per well) was added and plates kept at room temperature for 10 minutes. • 7. Excess dye was removed by washing 5 times with 1% acetic acid and plates were allowed to dry. • 8. The dye was solubilized in Tris base (Sigma; 10 mM, 150 μl per well). Plates were placed on a titer plate shaker (Lab Line Instruments) for 5 minutes to allow the dye to diffuse. • 9. Absorbance was measured at 560 nm.
10. The drug concentration which inhibits cell proliferation by 50% relative to untreated controls (IC50) was determined from cytotoxicity curves.

[2] abbreviates: Homo sapiens, 96 h, LoVo colon cells, 4 days at 37° C., SRB.
The mark [3] stands for this setting: Cellular activity in LoVo cell, 4 days incubation, SRB assay.
Setting [4] is: Cellular activity in 80S14 (p21-deficient) cells, SRB, class symbols, read-out: IC50 for 80S14.
[5] abbreviates: Homo sapiens, 80S14, 120 h, read-out: IC50 for 80S14 (μM).
Setting [6] is: LoVo colon cells, 4 days at 37° C., SRB.
Where [7] appears, read: 80S14 (p21-deficient) cells, 5 days at 37° C., SRB, read-out: IC50 for 80S14.

Like-named read-outs stand apart in the source and are kept apart here. A value given as a limit tells only on which side of the number the result lay.

The melting point is the temperature of the solid-liquid transition. In turn, `O=C(c1ccco1)c1cnn2c(-c3cccc(-n4cccc4)c3)ccnc12` [Example 186, 2-Furanyl[7-[3-(1H-pyrrol-1-yl)phenyl]pyrazolo[1,5-a]pyrimidin-3-yl]-methanone] yielded a melting point of 204 to 206 °C. With `O=C(Nc1cccc(-c2ccnc3c(C(=O)c4cccs4)cnn23)c1)OCCCN1CCS(=O)(=O)CC1` [Example 309, 3-(1,1-Dioxidothiomorpholin-4-yl)propyl 3-[3-(thien-2-ylcarbonyl)pyrazolo[1,5-a]pyrimidin-7-yl]phenylcarbamate], the melting point is 148 to 159 °C. The same measure, in the same setting: under `C/C=C(\C)CNc1cccc(-c2ccnc3c(C(=O)c4cccs4)cnn23)c1` [Example 319] stands 118 to 120 °C. In the case of `O=C(c1cccs1)c1cnn2c(-c3cccc(NC(=O)N4CCOCC4)c3)ccnc12` [Example 131, N-{3-[3-(thien-2-ylcarbonyl)pyrazolo[1,5-a]pyrimidin-7-yl]phenyl}morpholine-4-carboxamide], the IC50 in the data set on LoVo Colon cell line (setting [2]) lay within 100 to 1000 nM; in data set [1] (Homo sapiens, 120 h, 80S14 (p21-deficient) cells, 5 days at 37° C., SRB, read-out: IC50 for 80S14), 1 to 10 µM.

“(7-{3-[1-(Cyclobutylmethyl)-1H-pyrazol-3-yl]phenyl}pyrazolo[1,5-a]pyrimidin-3-yl)(thien-2-yl)methanone [Example 404]”: the IC50 with LoVo Colon cell line (setting [3]) was less than 100 nM; in data set [1] (setting [4]), less than 1 µM.

With `O=C(c1cccs1)c1cnn2c(-c3cccc(NCC4CC=CCC4)c3)ccnc12` (centres unmarked) [Example 324, (7-{3-[(cyclohex-3-en-1-ylmethyl)emnino]phenyl}pyrazolo[1,5-a]pyrimidin-3-yl)-(thien-2-yl)-methanone], the IC50 with LoVo Colon cell line (setting [3]) was less than 100 nM; in data set [1] (setting [4]), less than 1 µM. With “(7-{3-[1-(Pyridin-2-ylmethyl)-1H-pyrazol-3-yl]phenyl}pyrazolo[1,5-a]pyrimidin-3-yl)(thien-2-yl)methanone [Example 406]”, the IC50 with LoVo Colon cell line (setting [3]) was less than 100 nM; in data set [1] (setting [4]) it was less than 1 µM. The like results for “3-Methyl-N-{^5-[3-(thien-2-ylcarbonyl)pyrazolo[1,5-a]pyrimidin-7-yl]thien-2-yl}butanamide [Example 240]” were, in that order, 1000 to 20000 nM and 1 to 10 µM. In the case of “{7-[3-(1-Ethyl-1H-pyrazol-3-yl)phenyl]pyrazolo[1,5-a]pyrimidin-3-yl}(thien-2-yl)methanone [Example 407]”, the IC50 in the data set on LoVo Colon cell line (setting [3]) lay within 100 to 1000 nM; in data set [1] (setting [4]), 1 to 10 µM. Take `O=C(Nc1cccc(-c2ccnc3c(C(=O)c4cccs4)cnn23)c1)OCCCl` [Example 16, 2-chloroethyl 3-[3-(thien-2-ylcarbonyl)pyrazolo[1,5-a]pyrimidin-7-yl]phenylcarbamate]: the IC50 is less than 100 nM with LoVo Colon cell line (Homo sapiens, LoVo, 96 h) and less than 1 µM in data set [1] (setting [5]).

With “7-{3-[2-(Cyclobutylmethyl)-2H-tetraazol-5-yl]phenyl}-3-(3,5-dimethylphenyl)pyrazolo[1,5-a]pyrimidine [Example 381]”, the IC50 fell in the range of 100 to 1000 nM in the data set on LoVo Colon cell line (setting [3]) and 1 to 10 µM in data set [1] (setting [4]).

As to “tert-Butyl 4-[2-oxo-2-({3-[3-(thien-2-ylcarbonyl)pyrazolo[1.5-a]pyrimidin-7-yl]phenyl}amino)ethyl]piperidine-1-carboxylate [Example 286]”, the results for the IC50 (in the data set on LoVo Colon cell line (setting [3]); in data set [1] (setting [4])) were less than 100 nM and less than 1 µM, respectively. In the case of `C=C(C)C(=O)Nc1cccc(-c2ccnc3c(C(=O)c4cccs4)cnn23)c1` [Example 36, 2-methyl-N-{3-[3-(thien-2-ylcarbonyl)pyrazolo[1,5-a]pyrimidin-7-yl]phenyl} acrylamide], the IC50 in the data set with LoVo Colon cell line (setting [6]) was less than 100 nM; in data set [1] (setting [7]) it was less than 1 µM. For the compound `O=C(Nc1cccc(-c2ccnc3c(C(=O)c4cccs4)cnn23)c1)OCC1CCCCC1` [Example 148, Cyclohexylmethyl 3-[3-(thien-2-ylcarbonyl)pyrazolo[1,5-a]pyrimidin-7-yl]phenylcarbarmate], the IC50 was less than 100 nM in the data set on LoVo Colon cell line (setting [6]) and less than 1 µM in data set [1] (setting [7]). Take `COCCN(CCOC)C(=O)Nc1cccc(-c2ccnc3c(C(=O)c4cccs4)cnn23)c1` [Example 141, N,N-bis(2-methoxyethyl)-N′-{3-[3-(thien-2-ylcarbonyl)pyrazolo[1,5-a]pyrimidin-7-yl]phenyl}urea]: the IC50 in the data set on LoVo Colon cell line (setting [2]) lay within 1000 to 20000 nM. On to “3-(3,5-Dimethylphenyl)-7-[3-(2-ethyl-2H-tetrazol-5-yl)phenyllpyrazolo[1,5-a]pyrimidine [Example 384]”, for which the IC50 lay in the range of 100 to 1000 nM in the data set on LoVo Colon cell line (setting [3]) and 1 to 10 µM in data set [1] (setting [4]). For “(7-{3-[2-(2-Hydroxyethyl)-2H-tetraazol-5-yl]phenyl}pyrazolo[1,5-a]pyrimidin-3-yl)(thien-2-yl)methanone [Example 402]” the same measures were 100 to 1000 nM and less than 1 µM. As for `CCCCCNC(=O)Nc1cccc(-c2ccnc3c(C(=O)c4cccs4)cnn23)c1` [Example 138, N-pentyl-N′-{3-[3-(thien-2-ylcarbonyl)pyrazolo[1,5-a]pyrimidin-7-yl]phenyl}urea], the IC50 in the data set with LoVo Colon cell line (setting [2]) is less than 100 nM. With `CC(CCNc1cccc(-c2ccnc3c(C(=O)c4cccs4)cnn23)c1)CC(C)(C)C` (centres unmarked) [Example 321, Thien-2-yl(7-{3-[(3,5,5-trimethylhexyl]amino]phenyl}pyrazolo[1,5-a]pyrimidin-3-yl](thien-2-yl)methanone], the IC50 in the data set on LoVo Colon cell line (setting [3]) lay within 100 to 1000 nM; in data set [1] (setting [4]), 1 to 10 µM. `CC(C)NC(=S)Nc1ccc(Cl)c(-c2ccnc3c(C(=O)c4cccs4)cnn23)c1` [Example 237, N-{4-Chloro-3-[3-(thien-2-ylcarbonyl)pyrazolo[1,5-a]pyrimidin-7-yl]phenyl}-N′-isopropylthiourea]: the IC50 was in the range of 100 to 1000 nM with LoVo Colon cell line (Homo sapiens, 96 h, Cellular activity in LoVo cell, 4 days incubation, SRB assay) and 1 to 10 µM in data set [1] (Homo sapiens, Cellular activity in 80S14 (p21-deficient) cells, SRB, class symbols, read-out: IC50 for 80S14). Regarding “{7-[3-(1H-Pyrazol-3-yl)phenyl]pyrazolo[1,5-a]pyrimidin-3-yl}(thien-2-yl)methanone [Example 403]”, the IC50 was less than 100 nM in the data set with LoVo Colon cell line (setting [3]) and less than 1 µM in data set [1] (setting [4]). For the compound “(7-{3-[2-(Pyridin-2-ylmethyl)-2H-tetraazol-5-yl]phenyl}pyrazolo[1,5-a]pyriridin-3-yl)(thien-2-yl)methanone [Example 397]”, the IC50 is 100 to 1000 nM with LoVo Colon cell line (setting [3]) and less than 1 µM in data set [1] (setting [4]). With `C#CCOC(=O)Nc1cccc(-c2ccnc3c(C(=O)c4cccs4)cnn23)c1` [Example 13, prop-2-ynyl 3-[3-(thien-2-ylcarbonyl)pyrazolo[1,5-a]pyrimidin-7-yl]phenylcarbamate], the IC50 was 100 to 1000 nM in the data set with LoVo Colon cell line (Homo sapiens, LoVo, 96 h) and less than 1 µM in data set [1] (setting [5]).
